Reference: US20210308196A1, “COMPOSITIONS AND METHODS TO PROMOTE HOST DEFENSE AND STIMULATE, EXPAND, AND/OR RESET T CELL REPERTOIRES” (EVOLVE BIOSYSTEMS, INC., priority 2018, published 2021)

Columns and labels:
peanut allergy = assay: Prevention of human peanut allergy in infants; format: in vivo; conditions: high-level colonization vs control group with low-level colonization
Experimental: Infants 2-4 months of age at risk of allergy are recruited and their stool is screened for their Bifidobacterium infantis status (Bifidobacterium infantis abundance). The infants are divided into 2 groups: high Bifidobacterium (desirable infant gut microbiome) and low Bifidobacterium (dysbiotic infant gut microbiome). Low Bifidobacterium stool samples are determined to be low Bifidobacterium or dysbiotic, if their levels of Bifidobacterium are less than a threshold of 10^8 CFU/ug DNA and/or Bifidobacteriaceae family is less than 35% of the total infant gut microbiome as measured by a next generation sequencing, such as 16S RNA sequence. Conversely, a high Bifidobacterium sample or desirable infant gut microbiome has a threshold of 10^8 CFU/ug DNA or greater and/or Bifidobacteriaceae family is greater than 35% of the total infant gut microbiome. Once the infants are screened, the dysbiotic group is randomized into a placebo arm or a supplemented arm receiving activated B. infantis, LNnT and retinol. Infants are fed the supplement or placebo for 16 weeks. At 12 weeks, peanut extract is introduced to the diet for 3 days to infants who are at least 4 months old. Blood samples are taken at 12 weeks, 16 weeks, 20 weeks, 24 weeks, 36 weeks, 40 weeks to analyze TReg cells and IgE. At 9 months, the infants are brought in for a peanut challenge. The incident of allergy between groups is analyzed.

fecal bacteria = assay: Fecal microscopy (Gram-stained light microscopy, SEM); format: in vivo, human
Experimental: Fecal Microscopy. All samples were fixed by adding equal amount of 5% glutaraldehyde in 0.2 M cacodylate buffer (final concentration 2.5% glutaraldehyde in 0.1 M cacodylate buffer) for 1-2 h before being processed for Gram-stained light microscopy and scanning electron microscopy (SEM). For light microscopy, conventional Gram-stained samples on slides were imaged under an EVOS Auto-FL system using a 60× lens and 2.7× optical zoom, under the same setting of the color camera. Five random fields of images were collected from each sample slide. For SEM, since the samples were previously frozen before fixation, the osmium post-fixation, and critical-point dry procedures were not performed. The fixed samples were dehydrated through an ethanol series and placed on membrane filters. The samples were mounted onto the SEM stubs, aired overnight, and then vacuum-oven dried at 50° C. for >2 h before sputter-coating with a thin layer of chromium using Denton Desk V sputter. Images were collected under various magnifications to capture bacterial morphology using a Hitachi […] field-emission SEM. Microscopy confirmed the high levels of Bifidobacterium in samples from the treatment group.

[1] = system: TLR2, TLR4, TNF and COX-2; assay: qPCR of inflammatory markers in sloughed off intestinal epithelial cells; format: in vivo, human; conditions: treatment group
Excerpt: Expression of inflammatory markers including Toll like receptor (TLR) 2 and TLR4, COX-2 and TNF in intestinal epithelial cells: Previous data has implemented TLR2 in controlling mucosal inflammation by regulating intestinal epithelial barrier function. Further, a significant TLR4-dependent increase in Cox-2 expression has been shown in intestinal epithelial cells post exposure to lipopolysaccharide. TNF-α, a cytokine that plays a key role in mucosal inflammation, is readily detectable at the expression and protein levels in children who have various intestinal pathologies.

peanut extract allergy = assay: Reversal of murine peanut allergy; format: in vivo, mouse; conditions: previously sensitized animals, compared to control mice
Experimental: Germ-free pups are weaned 3 weeks after birth and put on a polysaccharide-free diet. Mice are gavaged with a dysbiotic microbiome of Example 3 at Day 1. Mice receive intragastric gavage of peanut extract on day 1 and day 7 at 5 mg/mouse and then 25 mg/mouse at week 5 with 10 μg of Cholera toxin. Elicitation of reaction is performed at eight to ten weeks using intragastric gavage of 10 mg/mouse food antigen (e.g., peanut extract) with vehicle (PBS). At 10 weeks, mice of the test group are fed B. infantis, while control mice receive vehicle gavage only. All mice have access ad labium to LNnT-infused drinking water for a period of 21 days. The mice are re-challenged with the food antigen via intragastric gavage of 10 mg/mouse peanut extract with vehicle (PBS). Anaphylaxis symptoms are evaluated, and then mice are necropsied. Plasma samples are collected for evaluation of histamine and IgE concentrations. White blood cells are isolated for PBMC characterization and evaluation of regulatory T cell population expansion using flow cytometry specific for CD4, CD25, Foxp3, Helios, Neuropilin, CD8, CD44, CD62L, IFNgamma, IL-17.

infant gut microbiome = assay: Infant fecal microbiome analysis (16S rDNA sequencing, B. infantis qPCR); format: in vivo, human
Experimental: Infant fecal samples were collected throughout the 60-day trial. Mothers collected their own fecal and breastmilk samples as well as fecal samples from their infants. They filled out weekly, biweekly and monthly health and diet questionnaires, as well as daily logs about their infant feeding and gastrointestinal tolerability (GI). Safety and tolerability were determined from maternal reports of infants' feeding, stooling frequency, and consistency (using a modified Amsterdam infant stool scale—watery, soft, formed, hard; Bekkali et al. 2009), as well as GI symptoms and health outcomes. Individual fecal samples were subjected to full microbiome analysis using Illumina sequencing based on 16S rDNA and qPCR with primers designed specifically for B. longum subsp. infantis strain.
Evaluation of EVC001 colonization. As previously described in Frese et al. (2017) (mSphere 2(6): e00501-00517) colonization is measured at baseline and post-feeding by quantitative PCR using specific primers for B. infantis. Colonization is considered when B. infantis abundance is greater than 10^5, but more preferably greater than 10^7 or 10^8 CFU/ug DNA. Colonization may also be described as a significant expansion of the total relative contribution of Bifidobacteriaceae to the infant gut microbiome.
Bacterial DNA Methods. The relative abundance of the stool bacteria at the phylum, class, order, family, and genus level was characterized by performing a sequence analysis of the V4 segment of the 16S rRNA gene using QIIME v1.9.1.

[2] = Prevention and/or treatment of severe acute malnutrition (SAM) in infants; format: in vivo, human; conditions: 28 days
[3] = infant feces, Day 6 (Baseline), before supplementation starts on Day 7

Bifidobacterium longum subsp. infantis EVC001 [B. infantis EVC001]
Inflammatory responses to the food antigen (peanut allergy): reduces
Bifidobacterium in fecal samples by microscopy (fecal bacteria; samples from the treatment group): high levels
Gram staining of fecal smears (fecal bacteria; three fecal samples, Day 40): overwhelmingly contained Gram-positive bacteria
Bacterial morphology in fecal samples (fecal bacteria; three fecal samples, Day 40, multiple fields of view): uniform morphology of rod-shaped bacteria
Expression of TLR2, TLR4, TNF and COX-2 [1]: significantly reduced
Inflammatory responses to the food antigen (peanut extract allergy): reduces
Levels of proteobacteria and enterococci (infant gut microbiome; colonized infants versus unsupplemented): much lower levels
B. infantis colonization level of infant gut (infant gut microbiome; continued after supplementation ended (Day 28) while breast milk consumed): higher than 10^10 cfu/g feces
Bacteroidaceae % Relative Abundance (infant gut microbiome; [3]): 0.1040%
Bifidobacteriaceae % Relative Abundance (infant gut microbiome; [3]): 0.1472%
Clostridiaceae % Relative Abundance (infant gut microbiome; [3]): 0.0874%
Enterobacteriaceae % Relative Abundance (infant gut microbiome; [3]): 0.2743%
Enterococcaceae % Relative Abundance (infant gut microbiome; [3]): 0.0539%
Lachnospiraceae % Relative Abundance (infant gut microbiome; [3]): 0.0197%
Other families % Relative Abundance (infant gut microbiome; [3]): 0.1357%
Staphylococcaceae % Relative Abundance (infant gut microbiome; [3]): 0.0543%
Streptococcaceae % Relative Abundance (infant gut microbiome; [3]): 0.1169%
Veillonellaceae % Relative Abundance (infant gut microbiome; [3]): 0.0065%
Bifidobacteriaceae % Relative Abundance (infant gut microbiome; infant feces, Day 40): significantly higher
Enterococcaceae % Relative Abundance (infant gut microbiome; infant feces, Day 40): 0.0045%
Lachnospiraceae % Relative Abundance (infant gut microbiome; infant feces, Day 40): 0.0072%
Other families % Relative Abundance (infant gut microbiome; infant feces, Day 40): 0.0215%
Staphylococcaceae % Relative Abundance (infant gut microbiome; infant feces, Day 40): 0.0036%
Streptococcaceae % Relative Abundance (infant gut microbiome; infant feces, Day 40): 0.0291%
Veillonellaceae % Relative Abundance (infant gut microbiome; infant feces, Day 40): 0.0077%
Bifidobacteriaceae % Relative Abundance (infant gut microbiome; infant feces, Day 40, listed as EVC001): 0.8712%
Enterobacteriaceae % Relative Abundance (infant gut microbiome; infant feces, Day 60): 0.0427%
Enterococcaceae % Relative Abundance (infant gut microbiome; infant feces, Day 60): 0.0082%
Lachnospiraceae % Relative Abundance (infant gut microbiome; infant feces, Day 60): 0.0081%
Other families % Relative Abundance (infant gut microbiome; infant feces, Day 60): 0.02443%
Staphylococcaceae % Relative Abundance (infant gut microbiome; infant feces, Day 60): 0.0039%
Streptococcaceae % Relative Abundance (infant gut microbiome; infant feces, Day 60): 0.0277%
Veillonellaceae % Relative Abundance (infant gut microbiome; infant feces, Day 60): 0.0076%
Gut microbiome share of B. longum subsp. infantis (infant gut microbiome; supplemented infants, on average, regardless of birthing mode): greater than 70%
Incidence of symptoms of acute malnutrition [2]: lower
TReg cells [2]: expansion
Weight gain [2]: better
B cell and plasma cell profiles, vaccine responses ([2]; children with SAM / hospitalized infants): improved
